Source: patent US12582641B2, “Sulfur-containing compound based on glutarimide skeleton and application thereof” (SHANGHAITECH UNIVERSITY, priority 2019, dated 2026)

Each compound was assayed on MM.1S cells (assay: Proliferation inhibition (IC50) in MM.1S cells, cell viability assay). Conditions: Homo sapiens, MM1.S, 72 h, read-out: IC50 (nM), proliferation inhibitory activity of MM.1S cells (half inhibitory concentration).
`CCN(CC)Cc1csc(CSc2cccc3c2CN(C2CCC(=O)NC2=O)C3=O)n1` (stereo not drawn) [SIAIS355002, 3-(4-(((4-((diethylamino)methyl)thiazol-2-yl)methyl)thio)-1-oxoisoindolin-2-yl)piperidine-2,6-dione] was tested, and the IC50 was 1.07 ± 0.39 nM. `O=C1CCC(N2Cc3c(SCCCCCCCCSc4cccc5c4CN(C4CCC(=O)NC4=O)C5=O)cccc3C2=O)C(=O)N1` (stereo not drawn) [SIAIS1216137B, 3,3′-((octane-1,8-diylbis(sulfanediyl))bis(1-oxoisoindoline-4,2-diyl))bis(piperidine-2,6-dione)] was tested, and the IC50 was 1.41 nM. `CC(C)(C)NCCCCCCCSc1cccc2c1CN(C1CCC(=O)NC1=O)C2=O` (stereo not drawn) [SIAIS1222079, 3-(4-((7-(tert-butylamino)heptyl)thio)-1-oxoisoindolin-2-yl)piperidine-2,6-dione] gave an IC50 of 0.135 nM. With `O=C1CCC(N2Cc3c(SCCCCCCCCN4CCC(F)(F)CC4)cccc3C2=O)C(=O)N1` (stereo not drawn) [SIAIS1220055, 3-(4-((8-(4,4-difluoropiperidin-1-yl)octyl)thio)-1-oxoisoindolin-2-yl)piperidine-2,6-dione] the IC50 was 0.26 nM. `O=C1CCC(N2Cc3c(SCCCCCCNC(=O)C45CC6CC(CC(C6)C4)C5)cccc3C2=O)C(=O)N1` (stereo not drawn) [SIAIS1222143, N-(6-((2-(2,6-dioxopiperidin-3-yl)-1-oxoisoindolin-4-yl)thio)hexyl)adamantane-1-carboxamide] showed an IC50 of 0.07 nM. In the case of `O=C1CCC(N2Cc3c(SCCC45CC6CC(CC(C6)C4)C5)cccc3C2=O)C(=O)N1` (stereo not drawn) [SIAIS1222173, 3-(4-((2-(adamantan-1-yl)ethyl)thio)-1-oxoisoindolin-2-yl)piperidine-2,6-dione], the IC50 is reported as 0.42 nM. For `Cc1ccc(NC(=O)NCCCCCCCSc2cccc3c2CN(C2CCC(=O)NC2=O)C3=O)cc1Cl` (stereo not drawn) [SIAIS269068, 1-(3-chloro-4-methylphenyl)-3-(7-((2-(2,6-dioxopiperidin-3-yl)-1-oxoisoindolin-4-yl)thio)heptyl)urea], the IC50 was 0.901 nM. For `CN(C)CCCCCCCCSc1cccc2c1CN(C1CCC(=O)NC1=O)C2=O` (stereo not drawn) [SIAIS1216149, 3-(4-((8-(dimethylamino)octyl)thio)-1-oxoisoindolin-2-yl)piperidine-2,6-dione], the IC50 was 0.32 ± 0.15 nM. With `O=C1CCC(N2Cc3c(SCCCCCCCNC4C5CC6CC(C5)CC4C6)cccc3C2=O)C(=O)N1` (stereo not drawn) [SIAIS1220159, 3-(4-((7-((adamantan-2-yl)amino)heptyl)thio)-1-oxoisoindolin-2-yl)piperidine-2,6-dione] the IC50 was 0.01 nM. In the case of `O=C1CCC(N2Cc3c(SCc4ccc(CNC56CC7CC(CC(O)(C7)C5)C6)cc4)cccc3C2=O)C(=O)N1` (stereo not drawn) [SIAIS1227061, 3-(4-((4-(((3-hydroxyadamantan-1-yl)amino)methyl)benzyl)thio)-1-oxoisoindolin-2-yl)piperidine-2,6-dione], the IC50 is reported as 0.721 nM. Compound `CC1(C)[C@@H]2CC[C@@]1(C)[C@@H](NCc1ccc(CSc3cccc4c3C(=O)N(C3CCC(=O)NC3=O)C4=O)cc1)C2` (stereo partly drawn) [SIAIS1221147, 2-(2,6-dioxopiperidin-3-yl)-4-((4-((((1R,2S,4R)-1,7,7-trimethylbicyclo[2.2.1]heptan-2-yl)amino)methyl)benzyl)thio)isoindoline-1,3-dione] has an IC50 of 0.458 nM. `O=C1CCC(N2Cc3c(SCc4ccc(CCCN5CCOCC5)cc4)cccc3C2=O)C(=O)N1` (stereo not drawn) [SIAIS1227053, 3-(4-((4-(3-morpholinopropyl)benzyl)thio)-1-oxoisoindolin-2-yl)piperidine-2,6-dione] gave an IC50 of 0.079 nM. `CCN(CC)CCCCCCCCCCSc1cccc2c1CN(C1CCC(=O)NC1=O)C2=O` (stereo not drawn) [SIAIS1220025, 3-(4-((10-(diethylamino)decyl)thio)-1-oxoisoindolin-2-yl)piperidine-2,6-dione] was tested, and the IC50 was 0.49 ± 0.05 nM. `O=C1CCC(N2Cc3c(SCc4ccc(CN5CCC6(CCCCC6)CC5)cc4)cccc3C2=O)C(=O)N1` (stereo not drawn) [SIAIS1227119, 3-(4-((4-((3-azaspiro[5.5]undecan-3-yl)methyl)benzyl)thio)-1-oxoisoindolin-2-yl)piperidine-2,6-dione] was tested, and the IC50 was 0.2 nM. Work on `CC(C)(C)NCc1ccc(CSc2cccc3c2CN(C2CCC(=O)NC2=O)C3=O)cc1` (stereo not drawn) [SIAIS1227107, 3-(4-((4-((tert-butylamino)methyl)benzyl)thio)-1-oxoisoindolin-2-yl)piperidine-2,6-dione] yielded an IC50 of 0.27 ± 0.07 nM. For `O=C1CCC(N2Cc3c(SCc4csc(CN5CCCCC5)n4)cccc3C2=O)C(=O)N1` (stereo not drawn) [SIAIS313164, 3-(1-oxo-4-(((2-(piperidin-1-ylmethyl)thiazol-4-yl)methyl)thio)isoindolin-2-yl)piperidine-2,6-dione], the IC50 was 2.78 ± 0.73 nM. `O=C1CCC(N2Cc3c(SCc4ccc(CCCN5CCCCC5)cc4)cccc3C2=O)C(=O)N1` (stereo not drawn) [SIAIS1227043, 3-(1-oxo-4-((4-(3-(piperidin-1-yl)propyl)benzyl)thio)isoindolin-2-yl)piperidine-2,6-dione] was tested, and the IC50 was 0.024 ± 0.006 nM. `O=C1CCC(N2Cc3c(SCCCc4ccc(CNC5CCCCC5)cc4)cccc3C2=O)C(=O)N1` (stereo not drawn) [SIAIS1227067, 3-(4-((3-(4-((cyclohexylamino)methyl)phenyl)propyl)thio)-1-oxoisoindolin-2-yl)piperidine-2,6-dione] showed an IC50 of 0.11 ± 0.02 nM. With `O=C1CCC(N2Cc3c(SCCCCCNC45CC6CC(CC(C6)C4)C5)cccc3C2=O)C(=O)N1` (stereo not drawn) [SIAIS1221117, 3-(4-((5-((adamantan-1-yl)amino)pentyl)thio)-1-oxoisoindolin-2-yl)piperidine-2,6-dione] the IC50 was 0.06 nM. Work on `O=C1CCC(N2Cc3c(SCCCCCCCCN4CCCNCC4)cccc3C2=O)C(=O)N1` (stereo not drawn) [SIAIS1220017, 3-(4-((8-(1,4-diazepan-1-yl)octyl)thio)-1-oxoisoindolin-2-yl)piperidine-2,6-dione] yielded an IC50 of 2.77 nM. Work on `CC1(C)[C@@H]2CC[C@@]1(C)[C@@H](NCCCCCSc1cccc3c1CN(C1CCC(=O)NC1=O)C3=O)C2` (stereo partly drawn) [SIAIS1221113, 3-(1-oxo-4-((5-(((1R,2S,4R)-1,7,7-trimethylbicyclo[2.2.1]heptan-2-yl)amino)pentyl)thio)isoindolin-2-yl)piperidine-2,6-dione] yielded an IC50 of 0.027 nM. For `O=C1CCC(N2Cc3c(SCCCCCCN4CCC5(CCCCC5)CC4)cccc3C2=O)C(=O)N1` (stereo not drawn) [SIAIS1221121, 3-(4-((6-(3-azaspiro[5.5]undecan-3-yl)hexyl)thio)-1-oxoisoindolin-2-yl)piperidine-2,6-dione], the IC50 was 0.057 nM. With `O=C1CCC(N2Cc3c(SCCCCCCC(=O)NC4C5CC6CC(C5)CC4C6)cccc3C2=O)C(=O)N1` (stereo not drawn) [SIAIS1220199, N-(adamantan-2-yl)-7-((2-(2,6-dioxopiperidin-3-yl)-1-oxoisoindolin-4-yl)thio)heptanamide] the IC50 was 0.026 ± 0.001 nM. With `O=C1CCC(N2Cc3c(SCc4ccc(/C=C/Br)cc4)cccc3C2=O)C(=O)N1` (stereo not drawn) [SIAIS1224154, (E)-3-(4-((4-(2-bromovinyl)benzyl)thio)-1-oxoisoindolin-2-yl)piperidine-2,6-dione] the IC50 was 0.809 nM. Compound `CC(C)N(CCCCCCCSc1cccc2c1CN(C1CCC(=O)NC1=O)C2=O)C(C)C` (stereo not drawn) [SIAIS1220107, 3-(4-((7-(diisopropylamino)heptyl)thio)-1-oxoisoindolin-2-yl)piperidine-2,6-dione] has an IC50 of 0.03 nM. For `O=C1CCC(N2Cc3c(SCc4ccc(CCN5CCC6(CC5)CC6)cc4)cccc3C2=O)C(=O)N1` (stereo not drawn) [SIAIS1227163, 3-(4-((4-(2-(6-azaspiro[2.5]octan-6-yl)ethyl)benzyl)thio)-1-oxoisoindolin-2-yl)piperidine-2,6-dione], the IC50 was 0.021 nM. For `O=C1CCC(N2Cc3c(SCc4cccc(CN5CCOCC5)c4)cccc3C2=O)C(=O)N1` (stereo not drawn) [SIAIS1227137, 3-(4-((3-(morpholinomethyl)benzyl)thio)-1-oxoisoindolin-2-yl)piperidine-2,6-dione], the IC50 was 1.04 ± 0.49 nM. `O=C1CCC(N2Cc3c(SCc4ccc(CNCC5CCCCO5)o4)cccc3C2=O)C(=O)N1` (stereo not drawn) [SIAIS313149, 3-(1-oxo-4-(((5-((((tetrahydro-2H-pyran-2-yl)methyl)amino)methyl)furan-2-yl)methyl)thio)isoindolin-2-yl)piperidine-2,6-dione] showed an IC50 of 1.3 ± 0.96 nM. In the case of `O=C1CCC(N2C(=O)c3cccc(SCCc4ccc(CNC56CC7CC(CC(C7)C5)C6)cc4)c3C2=O)C(=O)N1` (stereo not drawn) [SIAIS1224151, 4-((4-(((adamantan-1-yl)amino)methyl)phenethyl)thio)-2-(2,6-dioxopiperidin-3-yl)isoindoline-1,3-dione], the IC50 is reported as 3.41 nM. Work on `O=C1CCC(N2Cc3c(SCCCCCN4CCC5(CCCCC5)CC4)cccc3C2=O)C(=O)N1` (stereo not drawn) [SIAIS1221123, 3-(4-((5-(3-azaspiro[5.5]undecan-3-yl)pentyl)thio)-1-oxoisoindolin-2-yl)piperidine-2,6-dione] yielded an IC50 of 0.051 nM. `O=C1CCC(N2C(=O)c3cccc(SCCCCCCCNC4CCCCC4)c3C2=O)C(=O)N1` (stereo not drawn) [SIAIS1221175, 4-((7-(cyclohexylamino)heptyl)thio)-2-(2,6-dioxopiperidin-3-yl)isoindoline-1,3-dione] gave an IC50 of 0.938 nM. With `CN(CCCCCCCSc1cccc2c1C(=O)N(C1CCC(=O)NC1=O)C2=O)C12CC3CC(CC(C3)C1)C2` (stereo not drawn) [SIAIS1222029, 4-((7-((adamantan-1-yl)(methyl)amino)heptyl)thio)-2-(2,6-dioxopiperidin-3-yl)isoindoline-1,3-dione] the IC50 was 0.21 nM. Work on `CC(NCCCCCCSc1cccc2c1CN(C1CCC(=O)NC1=O)C2=O)C12CC3CC(CC(C3)C1)C2` (stereo not drawn) [SIAIS1222139, 3-(4-((6-((1-(adamantan-1-yl)ethyl)amino)hexyl)thio)-1-oxoisoindolin-2-yl)piperidine-2,6-dione] yielded an IC50 of 0.131 nM. Work on `O=C1CCC(N2Cc3c(SCCCCCCCNC4CC5(CCC5)C4)cccc3C2=O)C(=O)N1` (stereo not drawn) [SIAIS1222077, 3-(1-oxo-4-((7-(spiro[3.3]heptan-2-ylamino)heptyl)thio)isoindolin-2-yl)piperidine-2,6-dione] yielded an IC50 of 0.006 nM. Work on `O=C1CCC(N2C(=O)c3cccc(SCCCCCCCNC4CC5(CCC5)C4)c3C2=O)C(=O)N1` (stereo not drawn) [SIAIS1224015, 2-(2,6-dioxopiperidin-3-yl)-4-((7-(spiro[3.3]heptan-2-ylamino)heptyl)thio)isoindoline-1,3-dione] yielded an IC50 of 0.691 nM. In the case of `O=C1CCC(N2Cc3c(SCCCCCCCN[C@H]4C[C@H]5CC[C@@H]4C5)cccc3C2=O)C(=O)N1` (stereo partly drawn) [SIAIS1228059, 3-(4-((7-(((1R,2S,4S)-bicyclo[2.2.1]heptan-2-yl)amino)heptyl)thio)-1-oxoisoindolin-2-yl)piperidine-2,6-dione], the IC50 is reported as 0.037 nM.
